# Measurements: patent publication US9902752B2, “5-fluorouracil derivatives” (B. Braun Melsungen AG, priority 2012, dated 2018)
# Where two headings read alike, the source gives them in different places. {19c} = modification given as compound (19c) in the publication; {25} = modification given as compound (25) in the publication; {Cy3} = Cy-3 fluorescent dye
# What was measured:
# [1] = 1N aq. HCl/MeCN, 1:1 (v/v); cited from earlier work
# [2] = system: HT-29 (human colon carcinoma) cell line; experiment: Viability/survival of HT-29 cells (PrestoBlue); assay type: cell-based; details: HT-29, 10-80 μM, 24, 48 or 72 h; vs comparative compounds, 5-fluorouridine and 5-fluorouracil
# Description: In vitro experiments were performed using HT-29 (human colon carcinoma) cell line (DSMZ, GmbH, Braunschweig, Germany). The cells were cultured in 90% RPMI 1640 supplemented with 10% fetal bovine serum (FBS), 100 U/ml penicillin, 0.1 mg/ml streptomycin. Cells were maintained at 37° C. in a humidified atmosphere of 5% CO2 and 95% air; the medium was changed every 48 h.
# 1×10^4 human HT-29 in 100 μl medium/well were seeded in 96-well plates (BD Falcon™, Becton Dickinson GmbH, Heidelberg, Germany). After 24 h, the medium was changed and different concentrations of 5-fluorouracil, 5-fluorouridin and 5-fluorouridin derivative molecules (10, 20, 40 or 80 μM) were tested. After 24, 48 or 72 h incubation, viability/survival was measured using PrestoBlue™ reagent (Invitrogen-Life Technologies GmbH, Darmstadt, Germany). PrestoBlue™ reagent is more sensible than alamarBlue®, which is a redox indicator of enzyme activity widely used in whole organism screening for viability/cytotoxicity (1-6). PrestoBlue™ was directly added to the cells into the culture medium at a final concentration of 10%. Thereafter the plates were returned to the incubator. 30 min, 1 h, 2 h, 3 h and 4 h after addition of PrestoBlue™ the optical density (OD) was measured at 570 nm and 600 nm (as reference) with a SUNRISE ELISA-reader (Tecan, Salzburg, Austria). […]
# [3] = Lipophilicity as chromatographic mobility, RP-18 HPLC retention time; assay type: physicochemical; details: MeCN/0.1 M Et3NH+OAc− (35:65, v/v, pH 7.0)
# Description: RP-18 HPLC was carried out on a 250×4 mm RP-18 column (Merck, Germany) on a Merck-Hitachi HPLC apparatus with one pump (Model 655A-12) connected with a proportioning valve, a variable wavelength monitor (Model 655 A), a controller (Model L-5000), and an integrator (Model D-2000). Solvent: MeCN/0.1 M Et3NH^+OAc^− (35:65, v/v, pH 7.0).
# The lipophilicity of various 5-fluorouridine derivatives has been studied since the lipophilicity has inter alia an influence on the incorporation into oligo(2′-deoxynucleotides). The lipophilicity of the novel hydrophobic nucleoside derivatives has been studied in different by two ways: (i) log P values of the compounds were calculated (Table 4) and compared with those of the unmodified nucleoside 1a, (ii) the chromatographic mobilities of the compounds were measured in terms of retention times (tR in min) by RP-18 HPLC.
# [4] = cited from earlier work
# [5] = pKBH+ value of the nucleoside; assay type: physicochemical
# [6] = Diffusion times of oligonucleotides in the presence of a lipid bilayer; assay type: physicochemical
# Description: The incorporation of the oligonucleotides into artificial bilayers was performed at a lipid mixture of 1-palmitoyl-2-oleyl-sn-glycero-3-phosphoethanolamine (POPE) and 1-palmitoyl-2-oleyl-sn-glycero-3-phosphocholine (POPC) (8:2, w/w, 100 mg/ml of n-decane). For the preparation of the horizontal bilayers, planar slides (Ionovation GmbH, D-Osnabrück) were used. These slides contain chambers for cis- and trans compartments as well as electrode access (see FIG. 1). The main body of the slides contains of PTFE foil (thickness, 25 μm) with an aperture of ˜100 μm diameter. This foil separates the chamber into the cis- and trans compartments which are only connected by the aperture. After filling of the chamber with buffer (250 mM KCl, 10 mM MOPS/TRIS, pH 7), the cis- and trans compartments were linked with Ag/AgCl electrodes—embedded in agarose/3 M KCl). Then, a soln. of the POPC/POPE lipid mixture (0.2 μl) is applied onto the aperture of the PTFE foil using a Hamilton syringe (Hamilton, CH-Bonaduz). […] The formation of a stable bilayer was monitored both, optically using a laser scanning microscope (Insight Cell 3D, Evotec Technologies GmbH, D-Hamburg) as well as electrically by capacity measurements. […] The optical pictures of fluorescence fluctuations were obtained with a confocal laser scanning microscope (Insight Cell 3D, Evotec Technologies GmbH, D-Hamburg), equipped with a He—Ne laser (543 nm), a 40× water-immersion objective (UApo 340, 40×, NA=1.15, Olympus, 3-Tokyo), and an Avalanche photodiode detector (SPCM-AQR-13-FC, Perkin-Elmer Optoelectronics, Fremont, USA). Fluorescence irradiation was obtained with a laser power of 200±5 μW. […]
# From the fluorescence signals of single molecules which pass the excitation volume, the diffusion constants can be calculated. In order to determine the diffusion times of the fluorescent oligonucleotides within and near the bilayer, they were measured at five different positions above, below and within the layer. […]
# The diffusion times (μs) of 41 and 42 were measured, both without and in the presence of an artificial bilayer. […]
# [7] = Bilayer insertion of lipophilic oligonucleotides (fluorescence scans); assay type: physicochemical; details: for incorporation into the artificial bilayer: brightness of the layers, 25 min incubation; for retention in the bilayer after perfusions: perfusions of 60 s each
# Description: The incorporation of the oligonucleotides into artificial bilayers was performed at a lipid mixture of 1-palmitoyl-2-oleyl-sn-glycero-3-phosphoethanolamine (POPE) and 1-palmitoyl-2-oleyl-sn-glycero-3-phosphocholine (POPC) (8:2, w/w, 100 mg/ml of n-decane). For the preparation of the horizontal bilayers, planar slides (Ionovation GmbH, D-Osnabrück) were used. These slides contain chambers for cis- and trans compartments as well as electrode access (see FIG. 1). The main body of the slides contains of PTFE foil (thickness, 25 μm) with an aperture of ˜100 μm diameter. This foil separates the chamber into the cis- and trans compartments which are only connected by the aperture. After filling of the chamber with buffer (250 mM KCl, 10 mM MOPS/TRIS, pH 7), the cis- and trans compartments were linked with Ag/AgCl electrodes—embedded in agarose/3 M KCl). Then, a soln. of the POPC/POPE lipid mixture (0.2 μl) is applied onto the aperture of the PTFE foil using a Hamilton syringe (Hamilton, CH-Bonaduz). A small Faraday cage shields the bilayer and the electrodes from HF-electrical noise. Next, a bilayer is made-up automatically using a perfusion system (Bilayer Explorer V01, Ionovation GmbH, D-Osnabrück). The formation of a stable bilayer was monitored both, optically using a laser scanning microscope (Insight Cell 3D, Evotec Technologies GmbH, D-Hamburg) as well as electrically by capacity measurements. When a stable bilayer had been obtained (capacity, […]), the corresponding oligonucleotide soln. (50 nM, 4 μl) was injected into the cis compartment of the chip. During an incubation time of 25 min the intactness of the bilayer was electro-physiologically controlled using a headstage EPC 10 USB with a patch clamp amplifier (software: Patchmaster, HEKA Elektronik Dr. Schulze GmbH, D-Lambrecht). The optical pictures of fluorescence fluctuations were obtained with a confocal laser scanning microscope (Insight Cell 3D, Evotec Technologies GmbH, D-Hamburg), equipped with a He—Ne laser (543 nm), a 40× water-immersion objective (UApo 340, 40×, NA=1.15, Olympus, 3-Tokyo), and an Avalanche photodiode detector (SPCM-AQR-13-FC, Perkin-Elmer Optoelectronics, Fremont, USA). Fluorescence irradiation was obtained with a laser power of 200±5 μW. 2D and 3D scans were performed by scanning the confocal spot in XY direction with a rotating beam scanner and movement of the objective in Z direction. The movement in both directions was piezo controlled which allows a nano-meter precise positioning. For the 2D pictures (Z-scans, FIGS. 2 and 3) the confocal plane was moved in 100 nm steps. […]
# [8] = Free diffusion times of oligonucleotides (without bilayer); assay type: physicochemical; details: diluted 50 nM oligomer solution
# Description: From the fluorescence signals of single molecules which pass the excitation volume, the diffusion constants can be calculated. In order to determine the diffusion times of the fluorescent oligonucleotides within and near the bilayer, they were measured at five different positions above, below and within the layer. At each point five measurements for 30 s, each, were taken. In summary, each measuring protocol was as follows: (i) a reference scan of the stable (empty) bilayer; (ii) addition of the sample with 25 min of incubation, followed by a scan series; (iii) additional scan series, each after a 1., 2., and 3. perfusion (60 s, each).
# The diffusion times (μs) of 41 and 42 were measured, both without and in the presence of an artificial bilayer. For the determination of the free diffusion times the corresponding oligomer solution (50 nM) was diluted so that in the confocal measuring volume (˜10^−15 l) only one fluorescent molecule was present. Each measurement was performed ten-fold for 30 s, each. In order to determine the diffusion times of the lipophilized oligonucleotides (41, 42) in the presence of a bilayer five measuring positions above, beneath and in the bilayer were chosen. This was necessary because the bilayer is floating within certain limits, which makes it difficult to target it most exactly (FIG. 5, measuring points 1-5). […]
# [9] = measuring point 3, after 1. perfusion
compound,measurement,setting,value
"CCCC1(CCC)OC2[C@@H](O1)[C@@H](CO)O[C@H]2n1cc(F)c(=O)[nH]c1=O (some centres unmarked) [Compound 19b, 5-Fluoro-2,3′-O-(1-propylbutylidene)uridine]","acidic stability at the ketal group, T",[1],130 min
"CC(C)=CCC/C(C)=C/CC/C(C)=C/Cn1c(=O)c(F)cn([C@@H]2O[C@H](CO)C3OC4(CCCCCCCCCCC4)OC32)c1=O (some centres unmarked) [Compound 31a, 2′,3′-O-Cyclododecane-1,1-diyl-5-fluoro-3-[(2E,6E)-3,7,11-trimethyldodeca-2,6,10-trien-1-yl]uridine]",activity against carcinoma cells,[2],significant higher activity
"CC(C)=CCC/C(C)=C/CC/C(C)=C/Cn1c(=O)c(F)cn([C@@H]2O[C@H](CO)[C@H]3OC(C)(C)O[C@H]32)c1=O [Compound 24, 5-Fluoro-1-((3aR,4R,6R,6aR)-6-(hydroxymethyl)-2,2-dimethyltetrahydrofuro-[3,4-d][1,3]dioxol-4-yl)-3-((2E,6E)-3,7,11-trimethyldodeca-2,6,10-trien-1-yl)pyrimidine-2,4(1H,3H)-dione]",RP-18 HPLC tR,[3],24 min
"O=c1[nH]cc(F)c(=O)[nH]1 [fluorouracil, 5-fluorouracil]",half life,"[4]; with uracil (UFT, DPD inhibition)",10 to 14 h
same,half life,[4]; without uracil,0.167 to 0.5 h
"O=c1[nH]c(=O)n([C@@H]2O[C@H](CO)[C@@H](O)[C@H]2O)cc1F [Compound 1a, 5-Fluorouridine, reference compound]",RP-18 HPLC tR,[3],1 min
same,pKBH+,[5],8.0±0.1
"5′-d[(19c)-(Cy-3)-TAG GTC AAT ACT]. (DNA TAGGTCAATACT; DNA, 5' {19c}-{Cy3}, backbone not given here) [Oligomer 42]",Diffusion time in the presence of a bilayer,[6]; [9],"75952 ± 8201, after 1 perfusion μs"
same,Diffusion time in the presence of a bilayer,"[6]; measuring point 3, after 3. perfusion","19891 ± 3266, after 3. perfusion μs"
same,incorporation into the artificial bilayer,[7],better inserted
same,retention in the bilayer after perfusions,[7],do not lead to a significant removal
same,Free diffusion time,[8],390.39 ± 249.05 μs
"CCCCCCCCCC1(CCCCCCCCC)O[C@@H]2[C@H](O1)[C@@H](CO)O[C@H]2n1cc(F)c(=O)[nH]c1=O [Compound 19c, 5-Fluoro-1-((3aR,4R,6R,6aR)-6-(hydroxymethyl)-2,2-dinonyltetrahydrofuro[3,4-d][1,3]dioxol-4-yl)pyrimidine-2,4(1H,3H)-dione]",RP-18 HPLC tR,[3],>600 min
"5′-d[(25)-(Cy-3)-TAG GTC AAT ACT] (DNA TAGGTCAATACT; DNA, 5' {25}-{Cy3}, backbone not given here) [Oligomer 41]",Diffusion time in the presence of a bilayer,[6]; [9],"33547 ± 16751, after 1. perfusion μs"
same,incorporation into the artificial bilayer,[7],successfully incorporated
same,retention in the bilayer after perfusions,[7],brightness of the layer decreases after two perfusions
same,Free diffusion time,[8],279.67 ± 141.08 μs
"CCCC1(CCC)OC2C(O1)[C@@H](CO)O[C@H]2n1cc(F)c(=O)n(C/C=C(\C)CC/C=C(\C)CCC=C(C)C)c1=O (stereo partly drawn) [Compound 25, 5-Fluoro-1-((3aR,4R,6R,6aR)-6-(hydroxymethyl)-2,2-dipropyitetrahydrofuro-[3,4-d][1,3]dioxol-4-yl)-3-((2E,6E)-3,7,11-trimethyldodeca-2,6,10-trien-1-yl)pyrimidine-2,4(1H,3H)-dione]",RP-18 HPLC tR,[3],87 min
"CC1(C)O[C@@H]2[C@H](O1)[C@@H](CO)O[C@H]2n1cc(F)c(=O)[nH]c1=O [Compound 19a, 5-Fluoro-1-((3aR,4R,6R,6aR)-6-(hydroxymethyl)-2,2-dimethyltetrahydrofuro[3,4-d][1,3]dioxol-4-yl)pyrimidine-2,4(1H,3H)-dione]",melting point,,196 to 197 °C
"CC(C)=CCC/C(C)=C/CC/C(C)=C/Cn1c(=O)c(F)cn([C@@H]2O[C@H](CO)[C@@H](O)[C@H]2O)c1=O [Compound 23, 1-((2R,3R,4S,5R)-3,4-dihydroxy-5-(hydroxymethyl)tetrahydrofuran-2-yl)-5-fluoro-3-((2E,6E)-3,7,11-trimethyldodeca-2,6,10-trien-1-yl)pyrimidine-2,4(1H,3H)-dione]",RP-18 HPLC tR,[3],27 min
